From patent US9963445B2, “Chemical compounds” (SYNGENTA PARTICIPATIONS AG, priority 2013, dated 2018)

Assays:
Type in all cases: in vivo
[1] = tested on: Echinochloa crus-galli; experiment: Pre-emergence herbicidal activity, glasshouse pot test; settings: pre-emergence spray, rate 1000 g/ha, evaluated after 13 days, scale 0-5
Summary of the method: (§1)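 Pots of seeded soil were sprayed one day after sowing (pre-emergence) with compound formulated in acetone/water 50:50 with 0.5% Tween 20. Plants were grown in a glasshouse at 24/16 °C day/night, 14 h light, 65% humidity. Damage was scored after 13 days on a 0–5 scale (5 = total damage).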

[2] = tested on: Setaria faberi; experiment: as above; settings: pre-emergence spray, rate 1000 g/ha, evaluated after 13 days, scale 0-5
Summary of the method: as §1

[3] = tested on: Alopecurus myosuroides; experiment: as above; settings: pre-emergence spray, rate 1000 g/ha, evaluated after 13 days, scale 0-5
Summary of the method: as §1

[4] = tested on: zea mays; experiment: as above; settings: pre-emergence spray, rate 1000 g/ha, evaluated after 13 days, scale 0-5
Summary of the method: as §1

[5] = tested on: Abutilon theophrasti; experiment: as above; settings: pre-emergence spray, rate 1000 g/ha, evaluated after 13 days, scale 0-5
Summary of the method: as §1

[6] = tested on: Amaranthus retroflexus; experiment: as above; settings: pre-emergence spray, rate 1000 g/ha, evaluated after 13 days, scale 0-5
Summary of the method: as §1

[7] = tested on: Echinochloa crus-galli; experiment: Post-emergence herbicidal activity, glasshouse pot test; set-up: key: 0 = no damage to plant, 5 = total damage to plant; settings: Application post-emergence, rate 1000 g/ha, evaluated after 13 days
Summary of the method: (§2)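 Pot-grown seedlings, sown in standard soil, were sprayed 8 days after sowing and kept in a controlled glasshouse (24/16 °C, 14 h photoperiod, 65% humidity). Injury was assessed visually 13 days later on a scale where 5 means total damage.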

[8] = tested on: Setaria faberi; experiment: as above; set-up: key: 0 = no damage to plant, 5 = total damage to plant; settings: Application post-emergence, rate 1000 g/ha, evaluated after 13 days
Summary of the method: as §2

[9] = tested on: Alopecurus myosuroides; experiment: as above; set-up: key: 0 = no damage to plant, 5 = total damage to plant; settings: Application post-emergence, rate 1000 g/ha, evaluated after 13 days
Summary of the method: as §2

[10] = tested on: zea mays; experiment: as above; set-up: key: 0 = no damage to plant, 5 = total damage to plant; settings: Application post-emergence, rate 1000 g/ha, evaluated after 13 days
Summary of the method: as §2

[11] = tested on: Abutilon theophrasti; experiment: as above; set-up: key: 0 = no damage to plant, 5 = total damage to plant; settings: Application post-emergence, rate 1000 g/ha, evaluated after 13 days
Summary of the method: as §2

[12] = tested on: Amaranthus retroflexus; experiment: as above; set-up: key: 0 = no damage to plant, 5 = total damage to plant; settings: Application post-emergence, rate 1000 g/ha, evaluated after 13 days
Summary of the method: as §2

SMILES	ECHCG damage score, application pre-emergence [1]	SETFA damage score, application pre-emergence [2]	ALOMY damage score, application pre-emergence [3]	ZEAMX damage score, application pre-emergence [4]	ABUTH damage score, application pre-emergence [5]	AMARE damage score, application pre-emergence [6]	ECHCG herbicidal damage score [7]	SETFA herbicidal damage score [8]	ALOMY herbicidal damage score [9]	ZEAMX herbicidal damage score [10]	ABUTH herbicidal damage score [11]	AMARE herbicidal damage score [12]
CC1=C(Cl)C(=O)N(c2cc(C(F)(F)Cl)ccn2)C1O (stereo not drawn) [AF98]	5	5	3	2	1	5	5	5	5	3	5	5
COC1=C(C)C(O)N(c2cc(C(C)C)c(C(=O)NC(C)(C)C#N)cn2)C1=O (stereo not drawn) [AI31]	3	2	3	2	2	5	5	5	4	2	5	5
CC1=C(Cl)C(=O)N(c2cc(C(C)C)c(Cl)nn2)C1O (stereo not drawn) [BF10]	5	5	4	2	4	3	5	5	5	3	5	5
COC1=C(C)C(O)N(c2cc(OC(F)(F)F)ccn2)C1=O (stereo not drawn) [AI3]	4	4	3	2	4	5	5	5	5	1	4	4
COC1=C(C)C(O)N(c2cc(C)c(-c3cnn(C)c3)nn2)C1=O (stereo not drawn) [BI33]	0	0	0	0	0	0	2	2	2	1	0	4
CC1=C(Cl)C(=O)N(c2cc(C(F)F)ccn2)C1O (stereo not drawn) [AF34]	5	5	3	2	5	3	5	5	5	3	5	4
CC1=C(Cl)C(=O)N(c2cc(C)c(-c3ccsc3)cn2)C1O (stereo not drawn) [AF104]	1	1	0	0	1	5	5	5	2	0	4	5
CC1=C(Cl)C(=O)N(c2cc(C#N)ncn2)C1O (stereo not drawn) [CF13]	0	0	0	1	0	0	1	3	3	1	2	2
CC1=C(Cl)C(=O)N(c2cc(C(F)(F)F)c(-c3ccc(Cl)cc3)cn2)C1O (stereo not drawn) [AF87]	0	3	2	0	0	2	4	5	4	3	4	5
CC1=C(Cl)C(=O)N(c2cc(C(C)(C)C)c(Cl)nn2)C1O (stereo not drawn) [BF1]	2	3	2	1	4	5	5	4	4	2	5	5
COC1=C(C)C(O)N(c2cc(C(C)(F)F)c(-c3ccc(C)c(F)c3)nn2)C1=O (stereo not drawn) [BI20]	1	1	2	1	0	3	3	4	2	1	5	5
COC1=C(C)C(O)N(c2cc(C(C)(F)F)c(-c3ccc(F)cc3)nn2)C1=O (stereo not drawn) [BI17]	3	4	4	2	4	4	5	5	4	3	5	5
